# What was measured:
# LXRα [1] = target: T1, LXRα (Homo sapiens, UniProt Q13133); test: GAL4-LXRα / UAS-luc co-transfection reporter assay in HEK293 cells; format: cell-based; design: co-transfecting UAS-reporter and GAL4-LBD of the nuclear receptors LXRα, LXRβ and GR; GAL4 (fusion partner); expressed in transfected cells; host or cells: HEK293 cells; mouse primary hepatocytes
# T1 sequence (Q13133 209-447 limits assumed): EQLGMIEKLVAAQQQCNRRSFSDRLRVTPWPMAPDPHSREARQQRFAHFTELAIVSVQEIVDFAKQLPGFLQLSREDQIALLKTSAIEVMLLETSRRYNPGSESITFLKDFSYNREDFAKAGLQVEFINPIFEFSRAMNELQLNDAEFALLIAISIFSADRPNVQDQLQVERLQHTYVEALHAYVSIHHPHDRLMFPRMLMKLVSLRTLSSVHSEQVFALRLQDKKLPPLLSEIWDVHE
# Protocol: (§1) RLU=relative luciferase units.
# as §1
# (§2) Further experiments were then carried out to determine the inhibitory potencies for the individual LXR isoforms in HEK 293 cells by co-transfecting UAS-reporter and GAL4-LBD of the nuclear receptors LXRα, LXRβ and GR and then treating with 8 different concentrations of GSK2033. To assess suppression of ligand activated receptors, the transfected cells were co-treated with increasing doses of GSK2033, in addition to T09091317 or Dex (dexamethasone) (at EC80 of LXR isoforms and GR, respectively).
# A number of experiments were carried out to determine the relative inhibitory potencies of GSK2033, Amgen 54 and DMHCl for the individual LXR isoforms in HEK 293 cells by co-transfecting UAS-reporter and GAL4-LBD of the nuclear receptors LXRα, LXRβ and GR and then treating with 6 different concentrations of GSK2033, Amgen 54 and DMHCl. To assess suppression of ligand activated receptors, the transfected cells were co-treated with increasing doses of GSK2033, Amgen 54 and DMHCl, in addition to T09091317 or Dex (at EC80 of LXR isoforms and GR, respectively).
# LXRβ [2] = target: T2, LXRβ (Homo sapiens, UniProt P55055); test: GAL4-LXRβ / UAS-luc co-transfection reporter assay in HEK293 cells; format: cell-based; design: co-transfecting UAS-reporter and GAL4-LBD of the nuclear receptors LXRα, LXRβ and GR; GAL4 (fusion partner); expressed in transfected cells; host or cells: HEK293 cells; mouse primary hepatocytes
# T2 sequence (P55055 222-460 limits assumed): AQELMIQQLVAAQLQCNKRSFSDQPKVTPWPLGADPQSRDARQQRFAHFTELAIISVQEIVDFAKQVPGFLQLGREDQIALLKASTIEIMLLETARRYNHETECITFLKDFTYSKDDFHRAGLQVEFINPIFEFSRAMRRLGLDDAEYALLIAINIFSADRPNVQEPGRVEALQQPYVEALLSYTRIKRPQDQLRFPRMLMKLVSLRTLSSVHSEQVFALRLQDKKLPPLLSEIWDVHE
# Protocol: as §1, §1, §2
# A number of experiments were carried out to determine the relative inhibitory potencies of GSK2033, Amgen 54 and DMHCl for the individual LXR isoforms in HEK 293 cells by co-transfecting UAS-reporter and GAL4-LBD of the nuclear receptors LXRα, LXRβ and GR and then treating with 6 different concentrations of GSK2033, Amgen 54 and DMHCl.
# LXRα [3] = target: T1, LXRα; test: cell-based
# [4] = test system: mouse primary hepatocytes; test: Glucose production (glucose output) in mouse primary hepatocytes; format: cell-based
# Protocol: T09 treatment was used as a positive control for LXR activity. (D) Glucose output over 24 hrs from LXRα−/− and LXRβ−/− mouse primary hepatocytes following Dex 100 nM±10 μM GSK2033 treatment. (E) Glucose output over 8 hrs from WT hepatocytes following Dex 500 nM±10 μM GSK2033 treatments. Data represent the Avg±SD, N=3. *P<0.05 by One way ANOVA, Student Newman Keuls. Legend: V=vehicle, G=GSK2033 (LXR antagonist); D=dexamethasone (GR agonist); and T09=T0901317 (LXR agonist).
# While not wishing to be limited by theory, subsequent to conducting these initial studies it was realized that 24 hour incubation of hepatocytes in gluconeogenic media may be too long. In the literature, for this type of assay, primary heptocytes are usually incubated up to 12 hours. As such, for subsequent studies of the present application, WT cells were treated with 500 nM Dex for 8 hours to be able to measure detectable levels of glucose in the media.
# LXRβ [5] = target: T2, LXRβ; test: GAL4-LXRβ / UAS-luc transfection assay in mouse primary hepatocytes
# Source text: as §1
# LXRα−/− mice = test: In vivo 5 day Dex ± GSK2033 co-treatment study; design: species or system mouse
# Protocol: LXRα−/− mice were treated with Vehicle (Veh), Dex (2.5 mg/kg) b.i.d. or GSK2033 40 mg/kg (once a day) along with Dex b.i.d. for 5 days. (A) Plasma glucose levels were measured by a colorimetric kit (Wako). (B) Spleen weights were measured at the time of sacrifice, and are presented normalized to body weight. (C) Liver Pepck, FOXO1, Pgc 1α, FGF21, GR and LXRβ gene expression measured by QPCR. Data represent the Avg±SEM, N=2-5. *P<0.05 by One way ANOVA, Student Newman Keuls.
# Having observed promising results with GSK2033 co-treatment with Dex in-vitro (GSK2033-mediated suppression of GC-induced gluconeogenic side effects without affecting desirable immune suppression); a study was conducted, in which whole body LXRα−/− mice were treated with vehicle (Veh), 2.5 mg/kg bid (subcutaneous injection) Dex or Dex+40 mg/kg GSK2033 (once a day intraperitoneal injection) for 5 days, and sacrificed at lights on.
# Srebp-1c = Srebp-1c gene expression in mouse primary hepatocytes; format: cell-based; details: WT, LXRα−/− and LXRβ−/− hepatocytes; 250 nM T09 + 10 μM GSK2033
# [6] = preliminary experiment, 3 doses
# [7] = across the treatment groups (Veh, Dex, Dex+GSK2033)
smiles,measurement,setting,value
"Cc1cc(C)c(S(=O)(=O)N(Cc2ccc(-c3cccc(S(C)(=O)=O)c3)cc2)Cc2ccc(C(F)(F)F)o2)c(C)c1 [GSK2033, 2,4,6-trimethyl-N-((3′-(methylsulfonyl)-[1,1′-biphenyl]-4-yl)methyl)-N-((5-(trifluoromethyl)furan-2-yl)methyl)benzenesulfonamide]",IC50,"LXRα [1]; Example 1, T0901317 at EC80 (250 nM), 8 concentrations, read-out: IC50 against LXRα",79 nM
same,IC50,"LXRα [1]; Example 7, T0901317 250 nM, 6 concentrations, read-out: IC50 to inhibit LXRα",22 nM
same,basal repression of LXRα,LXRα [1]; [6],basal repression
same,IC50,"LXRβ [2]; IC50 against LXRβ, Example 1, T0901317 at EC80 (100 nM), 8 concentrations",37 nM
same,IC50,"LXRβ [2]; IC50 to inhibit LXRβ, Example 7, T0901317 100 nM, 6 concentrations",6.44 nM
same,basal repression of LXRβ,LXRβ [2]; [6],basal repression
same,IC50,LXRα [3],660 nM
same,glucose secretion (glucose output),"[4]; LXRα−/− hepatocytes, 100 nM Dex + 10 μM GSK2033, 24 hours",1.2 fold
same,glucose secretion (glucose output),"[4]; WT hepatocytes, 500 nM Dex + 10 μM GSK2033, 8 hours",1.25 fold
same,IC50,LXRβ [5],292 nM
same,"right-shift of LXRβ IC50, primary hepatocytes vs HEK293",LXRβ [5],~10 fold
same,selectivity for LXRβ vs. LXRα,LXRβ [5]; in hepatocytes,2.5 fold
same,spleen size (weight normalized to body weight),"LXRα−/− mice; Dex 2.5 mg/kg bid + GSK2033 40 mg/kg, 5 days, vs Veh",significantly smaller
same,liver FOXO 1 gene induction,LXRα−/− mice; Dex+GSK2033 group,normalized
same,liver Pepck gene induction,LXRα−/− mice; Dex+GSK2033 group,normalized
same,liver GR gene expression,LXRα−/− mice; [7],did not change
same,liver LXR gene expression,LXRα−/− mice; [7],did not change
same,T09 induction of Srebp-1c under GSK2033 co-treatment,Srebp-1c,significantly decreased

# Source: US9428753B2, “Use of LXR antagonists for treatment of side effects of elevated glucocorticoid levels” (The Governing Council of the University of Toronto, priority 2013, dated 2016)
